From patent publication US8933094B2, “Ethynyl compounds useful for treatment of CNS disorder” (Hoffmann-La Roche Inc., priority 2009, dated 2015)

Target: T1, human mGlu5a receptor (Homo sapiens, UniProt P41594)
T1 construct: expressed in transfected cells
Experiment: Intracellular Ca2+ mobilization assay (mGlu5 PAM)
Assay type: cell-based
Conditions: for EC50: HEK-293 cells stably transfected with human mGlu5a, L-glutamate added at EC20 after 10-30 min pre-incubation with test compound, read-out: EC50 (nM) mGlu5PAM; for Emax: maximal response in % of the maximal stimulatory effect obtained with saturating concentrations of L-glutamate, read-out: Eff. (%)
Protocol: A monoclonal HEK-293 cell line stably transfected with a cDNA encoding for the human mGlu5a receptor was generated; for the work with mGlu5 Positive Allosteric Modulators (PAMs), a cell line with low receptor expression levels and low constitutive receptor activity was selected to allow the differentiation of agonistic versus PAM activity. Cells were cultured according to standard protocols (Freshney, 2000) in Dulbecco's Modified Eagle Medium with high glucose supplemented with 1 mM glutamine, 10% (vol/vol) heat-inactivated bovine calf serum, Penicillin/Streptomycin, 50 μg/ml hygromycin and 15 μg/ml blasticidin (all cell culture reagents and antibiotics from Invitrogen, Basel, Switzerland).
About 24 hrs before an experiment, 5×10^4 cells/well were seeded in poly-D-lysine coated, black/clear-bottomed 96-well plates. The cells were loaded with 2.5 μM Fluo-4AM in loading buffer (1×HBSS, 20 mM HEPES) for 1 hr at 37° C. and washed five times with loading buffer. The cells were transferred into a Functional Drug Screening System 7000 (Hamamatsu, Paris, France), and 11 half logarithmic serial dilutions of test compound at 37° C. were added and the cells were incubated for 10-30 min. with on-line recording of fluorescence. Following this pre-incubation step, the agonist L-glutamate was added to the cells at a concentration corresponding to EC20 (typically around 80 μM) with on-line recording of fluorescence; in order to account for day-to-day variations in the responsiveness of cells, the EC20 of glutamate was determined immediately ahead of each experiment by recording of a full dose-response curve of glutamate.
Responses were measured as peak increase in fluorescence minus basal (i.e. fluorescence without addition of L-glutamate), normalized to the maximal stimulatory effect obtained with saturating concentrations of L-glutamate. Graphs were plotted with the % maximal stimulatory using XLfit, a curve fitting program that iteratively plots the data using Levenburg Marquardt algorithm. The single site competition analysis equation used was y=A+((B−A)/(1+((x/C)D))), where y is the % maximal stimulatory effect, A is the minimum y, B is the maximum y, C is the EC50, x is the log 10 of the concentration of the competing compound and D is the slope of the curve (the Hill Coefficient). From these curves the EC50 (concentration at which half maximal stimulation was achieved), the Hill coefficient as well as the maximal response in % of the maximal stimulatory effect obtained with saturating concentrations of L-glutamate were calculated.
A depression of the signal observed after addition of the EC20 concentration of L-glutamate was indicative of an inhibitory activity of the test compound.

T1 sequence (P41594 21-1180 isoform P41594-2 limits assumed): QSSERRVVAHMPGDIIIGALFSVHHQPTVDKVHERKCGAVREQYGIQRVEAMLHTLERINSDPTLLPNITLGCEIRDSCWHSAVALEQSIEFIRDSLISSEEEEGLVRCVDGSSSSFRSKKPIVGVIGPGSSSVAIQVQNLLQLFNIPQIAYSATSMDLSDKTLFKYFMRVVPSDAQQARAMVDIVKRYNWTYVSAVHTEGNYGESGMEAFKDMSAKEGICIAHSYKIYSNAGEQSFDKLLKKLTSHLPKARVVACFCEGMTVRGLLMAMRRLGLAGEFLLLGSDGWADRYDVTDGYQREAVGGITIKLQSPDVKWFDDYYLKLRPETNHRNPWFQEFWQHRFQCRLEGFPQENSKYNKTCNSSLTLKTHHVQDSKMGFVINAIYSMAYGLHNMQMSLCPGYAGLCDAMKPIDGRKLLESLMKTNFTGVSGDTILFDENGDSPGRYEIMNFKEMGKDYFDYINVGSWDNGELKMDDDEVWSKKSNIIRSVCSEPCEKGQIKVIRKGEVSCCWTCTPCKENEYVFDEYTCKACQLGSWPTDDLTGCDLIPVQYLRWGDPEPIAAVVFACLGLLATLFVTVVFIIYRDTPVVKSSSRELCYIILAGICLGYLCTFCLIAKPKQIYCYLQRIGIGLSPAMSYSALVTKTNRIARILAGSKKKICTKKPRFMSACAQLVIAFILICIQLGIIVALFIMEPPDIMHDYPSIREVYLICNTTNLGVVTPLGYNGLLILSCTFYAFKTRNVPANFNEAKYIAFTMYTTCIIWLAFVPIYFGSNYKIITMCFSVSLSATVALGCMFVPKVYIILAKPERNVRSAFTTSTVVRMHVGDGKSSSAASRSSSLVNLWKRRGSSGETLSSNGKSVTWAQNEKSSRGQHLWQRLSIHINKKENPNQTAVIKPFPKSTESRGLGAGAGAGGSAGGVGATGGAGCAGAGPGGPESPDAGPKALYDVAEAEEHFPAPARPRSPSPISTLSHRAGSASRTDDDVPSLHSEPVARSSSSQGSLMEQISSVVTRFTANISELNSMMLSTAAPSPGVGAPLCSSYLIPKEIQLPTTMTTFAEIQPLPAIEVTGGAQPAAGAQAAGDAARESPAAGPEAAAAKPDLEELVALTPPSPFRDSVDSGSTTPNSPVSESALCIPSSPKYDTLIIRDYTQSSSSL

SMILES | EC50 [nM] | Emax [%]
CC(C)(C)c1cc2ccc(C#Cc3ccccc3)cn2n1 [Example 41, 2-tert-Butyl-6-phenylethynyl-pyrazolo[1,5-a]pyridine] | 32 | 122
CC(C)(C)c1nc2ncc(C#Cc3ccccc3)cn2n1 [Example 42, 2-tert-Butyl-6-phenylethynyl-[1,2,4]triazolo[1,5-a]pyrimidine] | 9 | 73
CC(C)(C)c1nc2ncc(C#Cc3cc(F)ccc3F)cn2n1 [Example 43, 2-tert-Butyl-6-(2,5-difluoro-phenylethynyl)-[1,2,4]triazolo[1,5-a]pyrimidine] | 14 | 37
CC(C)(C)c1nc2ncc(C#Cc3cccc(F)c3)cn2n1 [Example 44, 2-tert-Butyl-6-(3-fluoro-phenylethynyl)-[1,2,4]triazolo[1,5-a]pyrimidine] | 9 | 85
CC(C)(C)c1nc2ncc(C#Cc3ccc(F)c(F)c3)cn2n1 [Example 45, 2-tert-Butyl-6-(3,4-difluoro-phenylethynyl)-[1,2,4]triazolo[1,5-a]pyrimidine] | 28 | 54
CC(C)(C)c1nc2ncc(C#Cc3cncc(Cl)c3)cn2n1 [Example 46, 2-tert-Butyl-6-(5-chloro-pyridin-3-ylethynyl)-[1,2,4]triazolo[1,5-a]pyrimidine] | 47 | 49
C(#Cc1cnc2nc(N3CCOCC3)nn2c1)c1ccccc1 [Example 47, 2-Morpholin-4-yl-6-phenylethynyl-[1,2,4]triazolo[1,5-a]pyrimidine] | 69 | 119
Cc1cccc(C#Cc2cnc3nc(N4CCOCC4)nn3c2)c1 [Example 48, 2-Morpholin-4-yl-6-m-tolylethynyl-[1,2,4]triazolo[1,5-a]pyrimidine] | 58 | 84
Fc1cccc(C#Cc2cnc3nc(N4CCOCC4)nn3c2)c1 [Example 49, 6-(3-Fluoro-phenylethynyl)-2-morpholin-4-yl-[1,2,4]triazolo[1,5-a]pyrimidine] | 50 | 101
Clc1cccc(C#Cc2cnc3nc(N4CCOCC4)nn3c2)c1 [Example 50, 6-(3-Chloro-phenylethynyl)-2-morpholin-4-yl-[1,2,4]triazolo[1,5-a]pyrimidine] | 39 | 88
C(#Cc1cnc2nc(N3CCCC3)nn2c1)c1ccccc1 [Example 51, 6-Phenylethynyl-2-pyrrolidin-1-yl-[1,2,4]triazolo[1,5-a]pyrimidine] | 56 | 141
